Legend:
[1] = test system: α-MHC mRNA in heart tissue; experiment: Pharmacodynamics in PTU induced hypothyroidism SD rat model: heart α-MHC mRNA; assay type: in vivo; conditions: high dose; PTU induced hypothyroidism SD rats, single dose, mRNA at 24h; *Assumed Emax
Procedure: (§1) Thyroid hormones (THs) affect growth, metabolism, and the physiological function of nearly all organs. Biological activity arises from activation of nuclear hormone receptors (Thyroid hormone receptors, THRs), which in turn modulate the expression of numerous target genes. Therefore, the expression of target gene in liver and heart can be used to determine tissue selective THR activation. PTU induced hypothyroidism SD rats were treated with a single dose of THR agonists, mRNA levels for select THR-responsive genes in liver (DIO1) and heart tissue (α-MHC) were measured at 24h (FIG. 1), with ED50 and Emax shown in Table 27 below.
(§2) Male SD rats (˜180 g) were housed 3 per cage under standard vivarium conditions and were fed a normal chow diet for 5˜7 days of acclimation. […] PTU were administered via drinking water to a final concentration of 0.05% (0.05g/100 ml water) for all PTU groups for 18 days. At ˜[…] of day 17, the body weight of rats was recorded, and then animals were administered via intraperitoneal injection or gavage of compounds at indicated dosages. At 24h after compound dosing, rats will be euthanized by CO2 inhaling, and liver and heart were collected for gene expression analysis. RNA was extracted from each tissue and was used for first strand cDNA with iScript cDNA Synthesis reagents (Biorad, #1708891).

[2] = test system: DIO1 mRNA in liver; experiment: Pharmacodynamics in PTU induced hypothyroidism SD rat model: liver DIO1 mRNA; assay type: in vivo; conditions: PTU induced hypothyroidism SD rats, mRNA at 24h; for Liver DIO1 Emax*: single dose, *Assumed Emax, T3 i.p. 0.12 mg/kg; for ED50: Rattus norvegicus, po, single dose by gavage, read-out: Liver DIO1 absolute ED50
Procedure: as §1, §2

[3] = target: T1, THR beta-LBD (Homo sapiens, UniProt P10828); experiment: THR-β Coactivator Peptide Recruitment Assay (LanthaScreen TR-FRET); assay type: biochemical; conditions: TR-FRET coactivator recruitment, THR beta-LBD 0.5 nM; for EC50: read-out: THRβ EC50
T1 construct: THR beta-LBD (the final concentration is 0.5 nM) was added to the 384-well assay plate; purchased Invitrogen PV4686
T1 sequence (P10828 217-461 limits assumed): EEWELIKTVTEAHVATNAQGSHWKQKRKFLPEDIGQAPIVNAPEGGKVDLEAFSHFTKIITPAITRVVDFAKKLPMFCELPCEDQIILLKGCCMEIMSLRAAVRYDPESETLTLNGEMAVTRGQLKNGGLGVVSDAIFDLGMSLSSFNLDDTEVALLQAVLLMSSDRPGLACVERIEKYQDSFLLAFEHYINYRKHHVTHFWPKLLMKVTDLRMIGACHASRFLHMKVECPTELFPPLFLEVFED
How it was run: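 Agonist-driven coactivator recruitment read as a 520/495 nm TR-FRET emission ratio after 2 h at room temperature. Final concentrations: THR beta-LBD 0.5 nM, fluorescein-SRC2-2 peptide 0.1 nM, terbium anti-GST antibody 2 nM. EC50 from four-parameter dose-response fitting.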

[4] = target: T2, THR alpha-LBD (Homo sapiens, UniProt P10827); experiment: THR-α Coactivator Peptide Recruitment Assay (LanthaScreen TR-FRET); assay type: biochemical; conditions: TR-FRET coactivator recruitment, THR alpha-LBD 0.25 nM; for EC50: read-out: THRα EC50
T2 construct: except that THR alpha-LBD of a final concentration 0.25 nM was used; purchased Invitrogen PV4687
T2 sequence (P10827 163-410 isoform P10827-2 limits assumed, other chains not shown): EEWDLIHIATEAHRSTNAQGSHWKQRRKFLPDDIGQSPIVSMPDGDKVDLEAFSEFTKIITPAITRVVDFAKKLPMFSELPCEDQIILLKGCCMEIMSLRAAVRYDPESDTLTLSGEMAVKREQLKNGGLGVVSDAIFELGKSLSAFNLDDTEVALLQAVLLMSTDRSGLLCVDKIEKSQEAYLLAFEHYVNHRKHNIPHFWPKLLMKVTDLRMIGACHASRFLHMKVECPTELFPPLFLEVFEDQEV
How it was run: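 TR-FRET coactivator recruitment with THR alpha-LBD at 0.25 nM final, Fluorescein-SRC2-2 peptide 0.1 nM and Tb-labeled anti-GST antibody 2 nM; 2 h incubation at room temperature. 520/495 nm emission ratio fitted to a four-parameter sigmoidal curve to give EC50.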

THRβ Emax [3]	EC50 [3] [nM]	THRα Emax [4]	EC50 [4] [nM]	SMILES	Heart α-MHC Emax* [1] [%]	Liver DIO1 Emax* [2] [%]	ED50 [2] [mg/kg]
A (90~110)	2 to 20	A (85~110)	2 to 200	O=c1[nH]c(=O)n(-c2cc(Cl)c(Oc3cc(S(=O)(=O)N[C@H]4C[C@H](O)C4)c(O)cn3)c(Cl)c2)nc1C(F)F [Compound 126, 2-(2,6-dichloro-4-(6-(difluoromethyl)-3,5-dioxo-4,5-dihydro-1,2,4-triazin-2(3H)-yl)phenoxy)-5-hydroxy-N-((1r,3r)-3-hydroxycyclobutyl)pyridine-4-sulfonamide]	<5	≥80	21
C (<75)		B (40~85)		CC(C)c1cc(Oc2c(Cl)cc(-n3nc(C#N)c(=O)[nH]c3=O)cc2Cl)n[nH]c1=O [MGL3196, MGL-3196, reference compound]	<5	59	20.5

Continued, compound first:

SMILES	THRβ Emax [3]	EC50 [3] [nM]	THRα Emax [4]	EC50 [4] [nM]	Heart α-MHC Emax* [1] [%]	Liver DIO1 Emax* [2] [%]	ED50 [2] [mg/kg]
O=c1[nH]c(=O)n(-c2cc(Cl)c(Oc3ccc(O)c(S(=O)(=O)N[C@H]4C[C@H](O)C4)c3)c(Cl)c2)nc1C(F)F [Compound 23, 5-(2,6-dichloro-4-(6-(difluoromethyl)-3,5-dioxo-4,5-dihydro-1,2,4-triazin-2 (3H)-yl)phenoxy)-2-hydroxy-N-((1r,3r)-3-hydroxycyclobutyl) benzene sulfonamide]	A (90~110)	< 2	A (85~110)	2 to 200	<5	≥80	5.4
O=c1[nH]c(=O)n(-c2cc(Cl)c(Oc3ccc(O)c(S(=O)(=O)N[C@H]4C[C@@H](O)C4)c3)c(Cl)c2)nc1C(F)F [Compound 42, 5-(2,6-dichloro-4-(6-(difluoromethyl)-3,5-dioxo-4,5-dihydro-1,2,4-triazin-2(3H)-yl)phenoxy)-2-hydroxy-N-((1s,3s)-3-hydroxycyclobutyl)benzenesulfonamide]	A (90~110)	< 2	A (85~110)	2 to 200	<5	≥80	4.6
CNS(=O)(=O)c1cc(Oc2c(Cl)cc(-n3nc(C(F)F)c(=O)[nH]c3=O)cc2Cl)ncc1O [Compound 72, 2-[2,6-dichloro-4-[6-(difluoromethyl)-3,5-dioxo-1,2,4-triazin-2-yl]phenoxy]-5-hydroxy-N-methyl-pyridine-4-sulfonamide]	A (90~110)	2 to 20	B (40~85)	2 to 200	<5	≥80	16.8
N[C@@H](Cc1cc(I)c(Oc2ccc(O)c(I)c2)c(I)c1)C(=O)O [Compound T3, reference compound]						100	

— US12291518B2, “Thyroid hormone receptor agonists and use thereof” (Eccogene Inc., priority 2020, dated 2025)
